Patent US7884067B2, “Peptides derived from cadherin and methods of use thereof” (Mount Sinai School of Medicine of New York University, priority 2001, dated 2011)

Experiments:
[1] = test system: CRE-dependent transactivation; assay: CRE-dependent luciferase activity in HEK293 cultures stably transfected with WT-PS1; format: cell-based, human; conditions: presence of L-685,458, FIG. 9B
Experimental: Transactivation assays. CRE-dependent transactivation was measured in the absence or presence of overexpression of PKA (pFC-PKA, Stratagene) by cotransfection with CRE-luciferase reporter plasmid (pCRE-Luc, Stratagene) and pSV-β-galactosidase vector (Promega) to evaluate transfection efficiency. CHOP-mediated transactivation was measured by cotransfection with the Gal4-fusion trans-activator plasmids (pFA-CHOP and pFR-Luc, Stratagene). 30 hours after transfection, luciferase and β-galactosidase activities were determined following manufacturer's instructions using a TD-20/20 luminometer (Turner Designs) and a DU-64 spectrophotometer (Beckman). Values were normalized to β-galactosidase activity and protein concentration.
HEK293 cultures stably transfected either with vector or WT-PS1 were co-transfected with pFC-PKA, pCRE-Luc, and pSV-β-galactosidase in the presence or absence of L-685,458 and then processed for CRE-dependent luciferase activity. Data in FIGS. 9A and B are the mean+/−s.e. of 4 experiments normalized to β-galactosidase activity and protein concentration. *, P<0.05; ***, P<0.001 (Student's t test).

[2] = test system: N-cadherin; assay: In vitro ε-cleavage assay, membranes from embryonic fibroblast cultures (WT / PS1 P264L knock-in study); format: biochemical, mouse; conditions: FIG. 13A lanes 1 and 2
Experimental: In vitro γ-secretase-like ε-cleavage assay. Cells were washed in PBS, resuspended in 1 ml of 4° C. hypotonic buffer (10 mM MOPS, pH 7.0, 10 mM KCl) and homogenized on ice. A post-nuclear supernatant was prepared by centrifugation at 1000×g for 15 minutes at 4° C. Crude membranes were isolated from the post-nuclear supernatant by centrifugation at 16,000×g for 40 minutes at 4° C. The membranes were then resuspended in […] of assay buffer (150 mM sodium citrate, pH 6.4, 1× Complete protease inhibitor cocktail), and incubated at 37° C. for 2 hours. Samples were either analyzed directly by WB or separated into pellet (P100) and supernatant (S100) fractions by ultracentrifugation for 1 hour at 100,000×g at 4° C. The S100 and P100 fractions were then analyzed by WB.
To investigate the consequences of FAD mutations in a physiologically relevant system in the absence of PS1 overexpression, the ε-cleavage of N-cadherin was examined in two independent embryonic fibroblast clones derived from a gene-targeted (knock-in) mouse homozygous for the human PS1 FAD mutation P264L (Siman et al. (2000) J. Neurosci. 20:8717-8726). Expression of the knock-in mutant PS1 allele is under the control of the endogenous PS1 gene. These models are distinct from overexpressing transgenic models because the mutant gene is expressed at normal levels, similar to those observed in WT models (FIG. 13, panel d). […]

[3] = test system: E-cadherin; assay: E-cadherin cleavage in staurosporine-treated (apoptotic) A431 cells (Western blot); format: cell-based, human
Experimental: Cell Cultures and transfections. Cells were grown in Dulbecco's Modified Eagle Medium (DMEM) plus 10% fetal bovine serum, penicillin and streptomycin in 5% CO2 at 37° C. […] A431 cells were from American Type Culture Collection. […] A431D cells stably transfected with wild-type or GGG759-761AAA mutant E-cadherin were provided by Dr. A. B. Reynolds.
Immunoprecipitations (IPs), immunoblotting, immunofluorescence and confocal microscopy. For WB analysis of cell extracts, cells were washed with PBS and then solubilized in RIPA buffer. For IPs cells were solubilized in Hepes buffer (25 mM Hepes [pH 7.4], 150 mM NaCl, 1× Complete protease inhibitor cocktail, Roche) containing 1% digitonin (IPs with I-R222 and PI-R222 antibodies) or 1% Triton X-100 (IPs with β-catenin and desmoglein antibodies). Following centrifugation at 17,000×g for 10 min, supernatants (1 mg protein) were pre-cleared with protein A- or protein G-agarose (Pierce) for 2 hours. Supernatants were then incubated with antibodies overnight at 4° C. and treated for 2 hours with protein A-agarose (polyclonal antibodies) or with protein G-agarose (monoclonal antibodies). IPs were washed with Hepes buffer containing either 1% digitonin or 1% Triton X-100 and analyzed by SDS-PAGE. Immunofluorescence and confocal microscopy was performed as described by Georgakopoulos et al., (1999). Briefly, cells were plated on 22×22 mm collagen-coated glass coverslips, fixed in cold methanol for 10 min at −20° C. Following washing in TBS (25 mM Tris-HCl [pH 7.4], 150 mM NaCl), cells were treated with 10% goat serum in SuperBlock (Pierce) for 1 hour, incubated overnight with primary antibody (1:100), washed in TBS and then were incubated with species specific Alexa Fluor™ secondary antibody conjugates (Molecular Probes). Cells were washed with TBS, mounted with Prolong antifade kit (Molecular Probes), and photographed on a Leica confocal laser scanning microscope.
Conditional media (20 μl) from A431 cells cultured in the absence or presence of […] and treated with SDS as above were probed on Western blots with anti-E-cadherin ectodomain antibody H108.

[4] = test system: MEF-1; assay: Electrophoretic mobility shift assay, MEF-1 probe; format: biochemical; conditions: FIG. 11C lanes 12-14
Experimental: Electrophoresis mobility shift assay (EMSA). Nuclear extract from CBP-transfected L cells were prepared using the extraction kit N-XTRACT (Sigma) according to manufacturer's instructions. Ten microgram of nuclear extract was used for EMSA performed according to manufacturer's instructions using biotinylated double-stranded oligonucleotide probes containing DNA-binding motifs for CREB or MEF-1 (Panomics). Probes are as follow: CREB, 5′-[…]-3′ (SEQ ID NO: 17); MEF-1,5′-[…]-3′ (SEQ ID NO: 18). Reaction products were separated on 6% polyacrylamide gels in cold TBE buffer (50 mM Tris-HCl, 45 mM Boric acid, 0.5 mM EDTA), transferred to nylon membranes (Immobilon-Ny+, Millipore) and bound probes were immobilized for 30 minutes at 85° C. and visualized by chemiluminescence using streptavidin-HRP conjugate. For antibody supershift analysis, nuclear extract was incubated for 3 hours at 4° C. with […] of 1 B6 antibody prior to probe addition. Where indicated, nuclear extract ([…]) was immunoprecipitated with A-22 antibody ([…]) and protein A-agarose in EBC buffer (50 mM Tris, pH 8, 120 mM NaCl, 0.5% NP40, 1× Complete protease inhibitor cocktail).

| Molecule | decrease of CRE-dependent transactivation caused by PS1 overexpression [1] | production of N-Cad/CTF2 [2] | production of the 33 kDa cadherin fragment (E-Cad/CTF2) ([3]; 30 minutes preincubation with L-685,458 (0.5 μM), then STS 6 hours) | E-Cad/CTF1 level on inhibition of E-Cad/CTF2 ([3]; L-685,458 (0.5 μM), STS 6 hours) | complex formation between MEF-1 and DNA probe containing MEF-1-binding elements [4] |
| --- | --- | --- | --- | --- | --- |
| CC(C)C[C@H](NC(=O)[C@H](Cc1ccccc1)C[C@@H](O)[C@H](Cc1ccccc1)NC(=O)OC(C)(C)C)C(=O)N[C@@H](Cc1ccccc1)C(N)=O [L-685,458] | reversed | sensitive | completely blocked | increase in E-Cad/CTF1 | – |
| N-Cad/CTF2: chicken cytoplasmic domain of N-cadherin (N-Cad/CTF2) inserted into vector pECE, expressed in L cells (protein) KRRDKERQAKQLLIDPEDDVRDNILKYDEEGGGEEDQDYDLSQLQQPDTVEPDAIKPVGIRRLDERPIHAEPQYPVRSAAPHPGDIGDFINEGLKAADNDPTAPPYDSLLVFDYEGSGSTAGSLSSLNSSSSGGEQDYDYLNDWGPRFKKLADMYGGGDD | – | – | – | – | no effect |
